The values below come from patent publication US20170008888A1 (KYORIN PHARMACEUTICAL CO., LTD., priority 2014, published 2017).

One experiment has as its target T1, ERK5 (Homo sapiens, UniProt Q13164).
T1 construct: screened for activity against several kinases in Jurkat cells; endogenous in cells; host or cells: Jurkat cell lysate
In words: Probe-based (AX9989 acyl phosphate ATP probe) kinase profiling in Jurkat lysate: ERK5. To be noted: for IC50: calculated from percent inhibition and screening concentration, Jurkat lysate, AX9989 probe; for inhibition at 1 µM: screening concentration 1 μM. The experiment is classed as binding. In short, it runs like this: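 ERK5 IC50 values came from percent inhibition at the screening concentration, measured as loss of LC/MS signal of probe-labelled active-site peptides. Compound was added for 15 min at room temperature to Jurkat lysate (5 mg/ml, 20 mM MnCl2) before labelling with AX9989 ATP acyl phosphate probe at 5 μM.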

The target of the next experiment is T2, AurA (Homo sapiens, UniProt O14965).
T2 construct: screened for activity against several kinases in Jurkat cells; endogenous in cells; host or cells: Jurkat cell lysate
T2 sequence (O14965 1-403): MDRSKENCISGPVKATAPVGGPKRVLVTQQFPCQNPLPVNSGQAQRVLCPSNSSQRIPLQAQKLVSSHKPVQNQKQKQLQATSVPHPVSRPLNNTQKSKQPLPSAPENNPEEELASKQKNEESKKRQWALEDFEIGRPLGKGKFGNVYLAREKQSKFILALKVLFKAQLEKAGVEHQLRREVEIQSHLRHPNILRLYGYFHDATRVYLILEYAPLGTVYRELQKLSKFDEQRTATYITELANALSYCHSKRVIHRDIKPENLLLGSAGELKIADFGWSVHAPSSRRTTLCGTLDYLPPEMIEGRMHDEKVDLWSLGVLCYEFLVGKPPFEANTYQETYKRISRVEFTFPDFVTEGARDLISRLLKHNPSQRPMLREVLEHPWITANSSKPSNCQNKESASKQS
In words: Probe-based (AX9989) kinase profiling in Jurkat lysate: AurA. The note with it: read-out: AurA Inhibition % at indicated screening concentration; for inhibition at 1 µM: screening concentration 1 μM. The experiment is classed as binding. In short, it runs like this:
(§1)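 Percent inhibition was derived from reduced LC/MS fragment intensities of probe-labeled peptides relative to compound-free controls. Before labeling with 5 μM AX9989, Mn2+-supplemented (20 mM) Jurkat lysate was exposed to compound for 15 min at room temperature.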

Another experiment relates to AurB or AurC. In words: Probe-based (AX9989) kinase profiling in Jurkat lysate: AurB or AurC. The format is binding. The method in brief: as §1
A further experiment addresses T3, JAK1 (Homo sapiens, UniProt P23458).
T3 construct: screened for activity against several kinases in Jurkat cells; endogenous in cells; host or cells: Jurkat cell lysate
Nature of the experiment: Probe-based (AX9989) kinase profiling in Jurkat lysate: JAK1. The experiment is classed as binding. The note with it: read-out: JAK1 Inhibition % at indicated screening concentration; for inhibition at 1 µM: screening concentration 1 μM. In short, it runs like this:
as §1

A further experiment relates to AMPKa1 or AMPKa2. In words: Probe-based (AX9989) kinase profiling in Jurkat lysate: AMPKa1 or AMPKa2. The format is binding. The method in brief: as §1
A further experiment concerns the target T4, TAO2 (Homo sapiens, UniProt Q9UL54).
T4 construct: screened for activity against several kinases in Jurkat cells; endogenous in cells; host or cells: Jurkat cell lysate
T4 sequence (Q9UL54 1-1235): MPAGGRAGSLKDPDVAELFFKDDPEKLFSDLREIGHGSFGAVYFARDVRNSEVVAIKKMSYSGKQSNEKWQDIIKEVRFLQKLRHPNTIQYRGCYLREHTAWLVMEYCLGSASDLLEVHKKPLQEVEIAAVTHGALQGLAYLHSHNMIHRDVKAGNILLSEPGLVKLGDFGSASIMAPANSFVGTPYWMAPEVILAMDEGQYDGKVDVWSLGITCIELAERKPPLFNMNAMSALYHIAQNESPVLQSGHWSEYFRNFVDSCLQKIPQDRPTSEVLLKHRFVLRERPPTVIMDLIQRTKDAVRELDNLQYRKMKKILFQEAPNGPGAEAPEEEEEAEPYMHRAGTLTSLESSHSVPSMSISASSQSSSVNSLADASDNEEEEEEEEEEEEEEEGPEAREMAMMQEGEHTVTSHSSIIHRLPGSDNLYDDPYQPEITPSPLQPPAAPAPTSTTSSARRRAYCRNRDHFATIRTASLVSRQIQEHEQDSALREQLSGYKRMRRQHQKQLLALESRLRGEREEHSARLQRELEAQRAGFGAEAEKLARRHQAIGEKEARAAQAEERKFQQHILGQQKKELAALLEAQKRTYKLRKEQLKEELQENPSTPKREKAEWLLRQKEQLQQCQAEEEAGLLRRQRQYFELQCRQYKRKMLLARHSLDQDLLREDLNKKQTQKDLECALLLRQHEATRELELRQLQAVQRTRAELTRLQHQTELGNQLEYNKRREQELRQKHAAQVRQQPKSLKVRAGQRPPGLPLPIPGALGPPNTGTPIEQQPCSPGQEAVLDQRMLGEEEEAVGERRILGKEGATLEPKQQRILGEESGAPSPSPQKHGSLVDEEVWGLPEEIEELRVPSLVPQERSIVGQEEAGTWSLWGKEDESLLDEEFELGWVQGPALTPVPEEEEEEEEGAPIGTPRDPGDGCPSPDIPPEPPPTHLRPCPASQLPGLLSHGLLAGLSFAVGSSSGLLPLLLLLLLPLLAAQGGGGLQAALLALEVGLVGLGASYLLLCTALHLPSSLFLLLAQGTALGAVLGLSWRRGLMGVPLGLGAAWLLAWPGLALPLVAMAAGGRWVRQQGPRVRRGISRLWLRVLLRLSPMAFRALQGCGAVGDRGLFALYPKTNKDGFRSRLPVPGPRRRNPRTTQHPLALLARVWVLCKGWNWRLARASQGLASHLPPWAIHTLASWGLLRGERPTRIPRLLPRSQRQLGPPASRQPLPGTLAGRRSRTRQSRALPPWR
In words: Probe-based (AX9989) kinase profiling in Jurkat lysate: TAO2. The format is binding. To be noted: read-out: TAO2 Inhibition % at indicated screening concentration; for inhibition at 1 µM: screening concentration 1 μM. In short, it runs like this:
as §1

Another experiment addresses T5, ACK (Homo sapiens, UniProt Q07912).
T5 construct: screened for activity against several kinases in Jurkat cells; endogenous in cells; host or cells: Jurkat cell lysate
In words: Probe-based (AX9989) kinase profiling in Jurkat lysate: ACK. The format is binding. The note with it: read-out: ACK Inhibition % at indicated screening concentration; for inhibition at 1 µM: screening concentration 1 μM. In short, it runs like this: as §1

A further experiment deals with ABL or ARG. In words: Probe-based (AX9989) kinase profiling in Jurkat lysate: ABL or ARG. The format is binding. The method in brief:
as §1

The next experiment relates to human PBMCs. Nature of the experiment: Human PBMC TNF-α response to endotoxin (ELISA). The experiment is classed as cell-based. To be noted: 0.1 μg/ml LPS 16 h, read-out: EC50 for the inhibition of the human PBMC TNF-α response to endotoxin, ave. ± S.D. The method in brief:
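PBMCs at 2e6 cells/ml in RPMI 1640 with 10% charcoal-dextran-treated FBS were pre-treated 1 h at 37 °C with compound (4-point 1:5 dilution from 10 μM). Stimulation with 0.1 μg/ml E. coli 0111:B4 LPS for 16 h; TNF-α measured by ELISA (A450) in 25-fold diluted supernatant.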

[1] abbreviates: read-out: ERK5 Inhibition % at indicated screening concentration.

T3 sequence (P23458 whole entry): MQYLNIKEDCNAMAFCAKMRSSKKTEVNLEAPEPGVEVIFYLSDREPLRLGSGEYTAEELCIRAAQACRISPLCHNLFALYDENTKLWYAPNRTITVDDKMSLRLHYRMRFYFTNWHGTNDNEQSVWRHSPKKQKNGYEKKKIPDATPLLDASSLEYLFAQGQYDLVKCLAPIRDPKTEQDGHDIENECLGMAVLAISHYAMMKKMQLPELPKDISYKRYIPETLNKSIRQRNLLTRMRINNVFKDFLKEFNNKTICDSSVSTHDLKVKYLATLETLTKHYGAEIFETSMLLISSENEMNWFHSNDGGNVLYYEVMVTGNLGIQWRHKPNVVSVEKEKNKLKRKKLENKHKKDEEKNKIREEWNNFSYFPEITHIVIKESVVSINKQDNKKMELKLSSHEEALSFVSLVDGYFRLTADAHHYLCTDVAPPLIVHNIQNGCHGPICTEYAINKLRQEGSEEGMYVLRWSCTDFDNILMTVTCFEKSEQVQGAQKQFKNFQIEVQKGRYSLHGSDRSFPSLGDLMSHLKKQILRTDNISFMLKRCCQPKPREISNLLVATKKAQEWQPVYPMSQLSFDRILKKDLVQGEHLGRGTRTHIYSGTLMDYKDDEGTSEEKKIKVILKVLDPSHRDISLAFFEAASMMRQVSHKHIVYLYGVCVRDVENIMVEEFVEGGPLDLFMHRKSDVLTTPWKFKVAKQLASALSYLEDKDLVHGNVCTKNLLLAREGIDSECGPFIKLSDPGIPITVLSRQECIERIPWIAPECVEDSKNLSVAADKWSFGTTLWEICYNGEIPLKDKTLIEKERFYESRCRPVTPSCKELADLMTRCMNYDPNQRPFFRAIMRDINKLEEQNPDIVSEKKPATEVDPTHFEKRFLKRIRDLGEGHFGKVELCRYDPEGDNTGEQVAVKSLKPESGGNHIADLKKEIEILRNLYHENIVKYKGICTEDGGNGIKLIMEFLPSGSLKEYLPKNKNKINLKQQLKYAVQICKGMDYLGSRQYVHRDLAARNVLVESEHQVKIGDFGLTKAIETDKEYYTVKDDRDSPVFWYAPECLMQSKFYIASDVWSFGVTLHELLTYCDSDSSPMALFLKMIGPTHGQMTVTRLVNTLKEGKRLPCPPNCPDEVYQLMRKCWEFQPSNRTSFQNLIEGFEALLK
T5 sequence (Q07912 whole entry): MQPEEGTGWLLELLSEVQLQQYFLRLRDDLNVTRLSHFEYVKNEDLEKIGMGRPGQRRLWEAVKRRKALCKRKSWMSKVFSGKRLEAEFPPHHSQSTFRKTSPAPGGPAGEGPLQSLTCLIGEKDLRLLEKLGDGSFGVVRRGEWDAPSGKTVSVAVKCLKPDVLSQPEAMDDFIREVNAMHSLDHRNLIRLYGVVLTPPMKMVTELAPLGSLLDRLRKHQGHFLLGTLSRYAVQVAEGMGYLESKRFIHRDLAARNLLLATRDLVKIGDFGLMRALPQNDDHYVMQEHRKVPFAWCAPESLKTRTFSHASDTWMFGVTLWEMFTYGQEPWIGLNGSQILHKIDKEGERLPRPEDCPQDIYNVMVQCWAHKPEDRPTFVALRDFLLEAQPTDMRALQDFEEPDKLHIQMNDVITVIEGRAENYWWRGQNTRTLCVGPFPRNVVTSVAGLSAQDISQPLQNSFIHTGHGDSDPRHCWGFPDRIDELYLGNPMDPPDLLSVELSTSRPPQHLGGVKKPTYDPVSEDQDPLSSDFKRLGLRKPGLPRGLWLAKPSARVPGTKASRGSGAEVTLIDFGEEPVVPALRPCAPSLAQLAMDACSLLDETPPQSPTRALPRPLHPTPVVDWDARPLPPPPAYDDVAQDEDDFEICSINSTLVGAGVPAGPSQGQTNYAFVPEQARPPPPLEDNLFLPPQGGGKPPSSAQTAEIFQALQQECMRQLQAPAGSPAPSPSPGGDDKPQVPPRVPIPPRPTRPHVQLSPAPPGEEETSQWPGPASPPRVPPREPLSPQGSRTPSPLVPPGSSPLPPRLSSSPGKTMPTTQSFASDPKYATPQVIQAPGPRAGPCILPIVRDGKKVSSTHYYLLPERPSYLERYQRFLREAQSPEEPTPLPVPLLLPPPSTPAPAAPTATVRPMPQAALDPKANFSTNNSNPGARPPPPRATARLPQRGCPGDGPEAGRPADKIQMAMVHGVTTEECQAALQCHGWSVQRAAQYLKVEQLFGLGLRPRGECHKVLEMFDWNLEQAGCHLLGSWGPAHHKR
T1 sequence (Q13164 whole entry): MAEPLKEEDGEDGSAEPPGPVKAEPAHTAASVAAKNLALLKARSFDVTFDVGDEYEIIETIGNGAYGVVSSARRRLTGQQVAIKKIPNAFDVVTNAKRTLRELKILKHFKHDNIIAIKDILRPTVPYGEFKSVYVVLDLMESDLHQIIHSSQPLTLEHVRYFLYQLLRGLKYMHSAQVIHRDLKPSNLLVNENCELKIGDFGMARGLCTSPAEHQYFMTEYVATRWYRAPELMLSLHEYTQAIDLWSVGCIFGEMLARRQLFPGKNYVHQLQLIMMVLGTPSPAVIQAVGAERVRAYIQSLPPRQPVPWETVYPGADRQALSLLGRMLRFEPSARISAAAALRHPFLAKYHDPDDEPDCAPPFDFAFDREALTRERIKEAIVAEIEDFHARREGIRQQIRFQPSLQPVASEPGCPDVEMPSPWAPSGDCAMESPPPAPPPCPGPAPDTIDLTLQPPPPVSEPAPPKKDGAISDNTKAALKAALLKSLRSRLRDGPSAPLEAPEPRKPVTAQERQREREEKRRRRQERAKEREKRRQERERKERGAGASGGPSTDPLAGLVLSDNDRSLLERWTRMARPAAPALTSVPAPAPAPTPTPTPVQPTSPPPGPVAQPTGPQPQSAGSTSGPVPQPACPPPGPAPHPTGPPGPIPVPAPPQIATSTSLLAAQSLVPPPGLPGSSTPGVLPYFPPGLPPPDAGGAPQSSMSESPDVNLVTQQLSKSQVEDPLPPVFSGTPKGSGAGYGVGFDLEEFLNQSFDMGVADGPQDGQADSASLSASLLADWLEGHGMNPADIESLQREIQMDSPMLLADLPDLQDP

In the case of `CCOc1cc(C(=O)N2CCC(N3CCCC3)CC2)ccc1Nc1cc2c(cn1)N(C)C(=O)N1C=CC=CC1=N2` [Compound T66], the IC50 (in general, the point on the concentration scale where inhibition reaches its midpoint) at ERK5 was above 500 nM. Besides, the inhibition at 10 µM was 35 to 50% at ERK5 (screening concentration 10 μM, read-out: ERK5 Inhibition % at indicated screening concentration); at most 35% at AurA (screening concentration 10 μM); at most 35% at JAK1 (screening concentration 10 μM); at most 35% on TAO2 (screening concentration 10 μM); 50 to 75% on ACK (screening concentration 10 μM). The “AurB or AurC Inhibition % at indicated screening concentration” value (“AurB or AurC Inhibition %” for short) in the experiment on AurB or AurC (screening concentration 10 μM) is recorded as “E (E is ≦35%)”. Also, the “AMPKa1 or AMPKa2 Inhibition % at indicated screening concentration” value (from here on “AMPKa1 or AMPKa2 Inhibition %”) in the experiment with AMPKa1 or AMPKa2 (screening concentration 10 μM) is listed as “E (E is ≦35%)”. In the experiment on ABL or ARG (screening concentration 10 μM), the “ABL or ARG Inhibition % at indicated screening concentration” value (from here on “ABL or ARG Inhibition %”) was “E (E is ≦35%)”. Besides, in the experiment with human PBMCs, the EC50 (usually the concentration giving half of the maximal effect) was above 10 µM.

With `CCOc1cc(C(=O)N2CCN(C(C)=O)CC2)ccc1Nc1cc2c(cn1)N(C)C(=O)c1ccccc1N2C1CC1` [Compound T67], the IC50 at ERK5 is at most 50 nM. Further, the inhibition at 1 µM at ERK5 (setting [1]) is above 90%; on AurA, at most 35%; at JAK1 it was at most 35%; at TAO2 it was at most 35%; on ACK, 35 to 50%. Also, the “AurB or AurC Inhibition %” value in the experiment on AurB or AurC (screening concentration 1 μM) is “E (E is ≦35%)”. Moreover, the “AMPKa1 or AMPKa2 Inhibition %” value in the experiment with AMPKa1 or AMPKa2 (screening concentration 1 μM) is reported as “E (E is ≦35%)”. The “ABL or ARG Inhibition %” value with ABL or ARG (screening concentration 1 μM) is “E (E is ≦35%)”. Further, the EC50 with human PBMCs is 4.9 µM.

`CCOc1cc(C(=O)N2CC[C@@H](N3CCN(C)CC3)C2)ccc1Nc1cc2c(cn1)N(C)C(=O)c1ccccc1N2C1CC1` [Compound T68]: the half-maximal inhibitory concentration (IC50) at ERK5 is at most 50 nM. For the same molecule, the inhibition at 1 µM at ERK5 (setting [1]) is above 90%; at AurA, at most 35%; on JAK1, at most 35%; on TAO2, at most 35%; on ACK, at most 35%. The “AurB or AurC Inhibition %” value with AurB or AurC (screening concentration 1 μM) is reported as “E (E is ≦35%)”. Further, the “AMPKa1 or AMPKa2 Inhibition %” value in the experiment on AMPKa1 or AMPKa2 (screening concentration 1 μM) is reported as “E (E is ≦35%)”. Moreover, the “ABL or ARG Inhibition %” value with ABL or ARG (screening concentration 1 μM) is given as “E (E is ≦35%)”. In addition, in the experiment on human PBMCs, the EC50 turned out to be 1.4 µM.

On to `CN1CCN([C@@H]2CCN(C(=O)c3ccc(Nc4cc5c(cn4)N(C)C(=O)c4ccccc4N5C)c(F)c3)C2)CC1` [Compound T69], for which the IC50 on ERK5 was at most 50 nM. Also, the inhibition at 1 µM at ERK5 (setting [1]) is above 90%; on AurA, at most 35%; on JAK1, at most 35%; at TAO2, at most 35%; on ACK it was 35 to 50%. The “AurB or AurC Inhibition %” value in the experiment on AurB or AurC (screening concentration 1 μM) is given as “E (E is ≦35%)”. Besides, the “AMPKa1 or AMPKa2 Inhibition %” value with AMPKa1 or AMPKa2 (screening concentration 1 μM) was “E (E is ≦35%)”. Further, the “ABL or ARG Inhibition %” value with ABL or ARG (screening concentration 1 μM) is recorded as “E (E is ≦35%)”. In addition, the EC50 with human PBMCs worked out at 3.48 µM.
